We go through eight compounds from ChEMBL document CHEMBL1201862, “PubChem BioAssay data set” (2004).

Structures are written as SMILES.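 1) Cells in 96-well plates. 2) Compound, 48 h, 5 concentrations. 3) Linear interpolation between surrounding doses. 4) Unreached endpoint = highest concentration. GI50 = concentration required for 50% inhibition of growth.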 Calls of active or inactive are those of the source. Cut-off read from the data, not from the text of the source: active = GI50 up to about 1.1 µM and inactive = higher.

Among the test systems are ACHN; SF-268; OVCAR-8; OVCAR-3; UO-31; K562; HOP-92; A549; NCI/ADR-RES; HT-29; RXF 393; RPMI-8226; IGROV-1; Hs-578T; SK-MEL-5; SK-MEL-28; MDA-MB-231; HL-60; SR; CCRF-CEM.
What all share (experiment): NCI-60 cell line screen, 48 h

For the compound `Clc1ccc(OCc2nnc(CCCCCCCCc3nnc(COc4ccc(Cl)cc4)n3Nc3ccccc3)n2Nc2ccccc2)cc1`, the GI50 in the assay on ACHN was 1.16 µM (inactive); in the assay with SF-268 it was 12.8 µM (inactive); in the assay on OVCAR-8 it was 30.4 µM (inactive); in the assay on OVCAR-3, 14.2 µM (inactive); in the assay on UO-31, 2.04 µM (inactive); in the assay on K562 it was 0.343 µM (active). For the same compound, the GI50 in the assay on HOP-92 is 21.4 µM (inactive); with A549, 1.19 µM (inactive); with NCI/ADR-RES, 3.84 µM (inactive); in the assay with HT-29, 5.24 µM (inactive); with RXF 393, 21.8 µM (inactive); with RPMI-8226, 0.21 µM (active). In addition, the GI50 in the assay on IGROV-1 was 7.23 µM (inactive); with Hs-578T it was 22.9 µM (inactive); with SK-MEL-5, 0.463 µM (active); in the assay with SK-MEL-28 it was 4.62 µM (inactive); in the assay on MDA-MB-231, 26.2 µM (inactive).
On to `C/C(=N\NC1=NCCN1)c1cn(C2=NCCN2)nc1C`, for which the GI50 in the assay with ACHN was > 100 µM (inactive); with SF-268, > 100 µM (inactive); in the assay on OVCAR-8 it was > 100 µM (inactive); in the assay with OVCAR-3, > 100 µM (inactive); in the assay on UO-31, > 100 µM (inactive); in the assay on K562 it was 59.6 µM (inactive). In addition, the GI50 in the assay with HOP-92 is 97.1 µM (inactive); in the assay on A549, > 100 µM (inactive); in the assay on NCI/ADR-RES it was > 100 µM (inactive); in the assay on HT-29 it was > 100 µM (inactive); with RXF 393, 72.1 µM (inactive); in the assay on RPMI-8226 it was > 100 µM (inactive). The GI50 in the assay with IGROV-1, in the assay with Hs-578T, in the assay on SK-MEL-5, with SK-MEL-28 and with MDA-MB-231 was > 100 µM (inactive) throughout.
For the compound `Clc1ccc(-c2cc(-c3cc4cc(Br)ccc4nc3Cl)on2)cc1`, the GI50 was 13.8 µM (inactive) in the assay on ACHN; 13.4 µM (inactive) with SF-268; 18.7 µM (inactive) in the assay with OVCAR-8; 1.7 µM (inactive) with HL-60; 10 µM (inactive) in the assay on OVCAR-3; 17.3 µM (inactive) with UO-31. The GI50 in the assay with K562 is 15.1 µM (inactive); with HOP-92 it was 27.9 µM (inactive); in the assay with A549, 13.2 µM (inactive); in the assay with NCI/ADR-RES, 14.9 µM (inactive); with SR it was 10.4 µM (inactive); in the assay with HT-29, 17.5 µM (inactive). For the same compound, the GI50 in the assay on CCRF-CEM is 11.5 µM (inactive); in the assay on RXF 393 it was 15.4 µM (inactive); in the assay with RPMI-8226 it was 15.4 µM (inactive); in the assay with IGROV-1, 12.9 µM (inactive); in the assay with Hs-578T it was 22.8 µM (inactive); in the assay on SK-MEL-5, 9.12 µM (inactive). The GI50 in the assay on SK-MEL-28 was 9.62 µM (inactive).
For the compound `CC(C)c1c(O)c(O)c2c(c1O)C(=O)C(O)=C1C(C)(C)CCC[C@@]12C`, the GI50 in the assay on ACHN is 2.96 µM (inactive); with SF-268, 4.76 µM (inactive); in the assay with OVCAR-8, 2.71 µM (inactive); in the assay with HL-60, 2.05 µM (inactive); with OVCAR-3 it was 3.13 µM (inactive); in the assay with UO-31 it was 2.32 µM (inactive). In addition, the GI50 is 2.77 µM (inactive) in the assay on K562; 1.89 µM (inactive) in the assay with HOP-92; 3.6 µM (inactive) in the assay with A549; 4.05 µM (inactive) with SR; 2.94 µM (inactive) with HT-29; 3.48 µM (inactive) in the assay with CCRF-CEM. Further, the GI50 in the assay on RXF 393 was 2.86 µM (inactive); with RPMI-8226, 1.26 µM (inactive); in the assay with IGROV-1, 3.73 µM (inactive); with Hs-578T, 4.31 µM (inactive); in the assay on SK-MEL-5, 2.6 µM (inactive); with SK-MEL-28, 5.85 µM (inactive). Further, the GI50 in the assay on MDA-MB-231 is 2.92 µM (inactive).
`O=C(Sc1c(-c2ccccc2)c(=O)n(-c2ccccc2)c(=S)n1-c1ccccc1)c1cccs1`: the GI50 is 81.8 µM (inactive) in the assay on ACHN; > 100 µM (inactive) in the assay on SF-268; 73.3 µM (inactive) with OVCAR-8; 76 µM (inactive) in the assay on HL-60; > 100 µM (inactive) with OVCAR-3; > 100 µM (inactive) in the assay with UO-31. Further, the GI50 was 25.1 µM (inactive) in the assay with K562; 50 µM (inactive) in the assay on HOP-92; > 100 µM (inactive) in the assay on A549; 50.8 µM (inactive) in the assay on NCI/ADR-RES; 38.4 µM (inactive) in the assay on SR; 72.3 µM (inactive) in the assay with HT-29. Also, the GI50 with CCRF-CEM is 11.8 µM (inactive); in the assay with RPMI-8226 it was 24.4 µM (inactive); with IGROV-1 it was 49.7 µM (inactive); in the assay with Hs-578T, > 100 µM (inactive); in the assay on SK-MEL-5 it was 19.2 µM (inactive); in the assay on SK-MEL-28 it was > 100 µM (inactive).
As to `OCCN(/N=C\c1ccc2ccccc2c1)C1=NCCN1`, the GI50 was 29.1 µM (inactive) in the assay with ACHN; 35.1 µM (inactive) in the assay with SF-268; 48.4 µM (inactive) with OVCAR-8; 19 µM (inactive) with HL-60; 23.2 µM (inactive) with OVCAR-3; 54.7 µM (inactive) with UO-31. The GI50 in the assay with K562 was 14.4 µM (inactive); in the assay on HOP-92, 16 µM (inactive); in the assay with A549 it was 59.2 µM (inactive); in the assay on SR it was 25.6 µM (inactive); with HT-29 it was 27.5 µM (inactive); with CCRF-CEM, 27.6 µM (inactive). Besides, the GI50 was 11.4 µM (inactive) in the assay with RXF 393; 28.8 µM (inactive) in the assay with RPMI-8226; 35.1 µM (inactive) with IGROV-1; 36.1 µM (inactive) in the assay with Hs-578T; 18.3 µM (inactive) in the assay on SK-MEL-5; 19.3 µM (inactive) in the assay with SK-MEL-28. Moreover, the GI50 in the assay on MDA-MB-231 is 12.8 µM (inactive).
For the compound `COC(=O)c1c(C)cccc1/C=C1\Cc2cc(C)cc(C)c2C1=O`, the GI50 in the assay on ACHN was 27.9 µM (inactive); in the assay on SF-268, 30.8 µM (inactive); with OVCAR-8, 63.8 µM (inactive); with HL-60, > 100 µM (inactive); in the assay with OVCAR-3, 50.6 µM (inactive); with UO-31, > 100 µM (inactive). In addition, the GI50 was > 100 µM (inactive) in the assay with K562; 17.9 µM (inactive) in the assay on HOP-92; 76.4 µM (inactive) in the assay with A549; > 100 µM (inactive) in the assay with SR; 89.5 µM (inactive) with HT-29; > 100 µM (inactive) in the assay on CCRF-CEM. Also, the GI50 in the assay with RXF 393 is 20.7 µM (inactive); in the assay with RPMI-8226 it was > 100 µM (inactive); in the assay on IGROV-1, 65.8 µM (inactive); in the assay with Hs-578T, 18.1 µM (inactive); with SK-MEL-5 it was 32.3 µM (inactive); in the assay on SK-MEL-28, > 100 µM (inactive). Further, the GI50 in the assay on MDA-MB-231 was > 100 µM (inactive).
On to `CN(C)CCNC(=O)c1cc([N+](=O)[O-])cn1C`, for which the GI50 in the assay with ACHN, in the assay on SF-268, in the assay on OVCAR-8, in the assay with HL-60, in the assay on OVCAR-3 and in the assay on UO-31 was > 100 µM (inactive) in each case. The GI50 with K562, in the assay on A549, in the assay on SR, in the assay on HT-29, in the assay with CCRF-CEM and with RXF 393 was > 100 µM (inactive) each time. Also, the GI50 in the assay with RPMI-8226, in the assay on IGROV-1, in the assay with Hs-578T, in the assay with SK-MEL-5, with SK-MEL-28 and with MDA-MB-231 was > 100 µM (inactive) throughout.
